Data from US7964607B2, “Pyrazolo[3,4-d]pyrimidine compounds” (Pfizer Inc., priority 2007, dated 2011).
pIC50: −log10 of the molar value.

What follows are molecules tested against T1, human recombinant PDE9 enzyme (Homo sapiens, UniProt O76083) (assay: Phosphodiesterase 9 (PDE9) inhibitory activity, Scintillation Proximity (SPA) assay). Conditions: not given.
T1 construct: made in house; host or cells: SF-9 insect cells
Type: biochemical
Protocol: Phosphodiesterase 9 (PDE9) Inhibitory Activity The PDE9 assay was performed using the Phosphodiesterase Scintillation Proximity (SPA) assay (GE Healthcare Life Sciences). […] The human recombinant PDE9 enzyme was generated in SF-9 cells, the cell pellets were sonicated in buffer (20 mM TRIS, 2 mM benzamidine, 1 mM EDTA, 250 mM sucrose, 100 μM PMSF, pH 7.5 with HCl), centrifuged at 40,000×g for 20 min at 4° C. The supernatants were stored at −80° C. […] Test compounds were dissolved in DMSO, diluted in DI H2O and serially diluted in 20% DMSO/80% H2O, for a final concentration of 2% DMSO. For the assay the PDE9 was diluted with assay buffer such that 20% or less of the substrate was hydrolyzed to 5′GMP. Each assay well contained 10 μl of test compound or solvent, 40 μl of [^3H]CGMP and 50 μl of enzyme, background was determined by a high concentration of a PDE inhibitor. The assay was initiated with the addition of the enzyme and carried out at room temperature for 30 min. […] The plates were sealed, vortexed, allowed to set for >300 min, then counted in a Wallac TriLux MicroBeta LSC.

T1 sequence (O76083 whole entry): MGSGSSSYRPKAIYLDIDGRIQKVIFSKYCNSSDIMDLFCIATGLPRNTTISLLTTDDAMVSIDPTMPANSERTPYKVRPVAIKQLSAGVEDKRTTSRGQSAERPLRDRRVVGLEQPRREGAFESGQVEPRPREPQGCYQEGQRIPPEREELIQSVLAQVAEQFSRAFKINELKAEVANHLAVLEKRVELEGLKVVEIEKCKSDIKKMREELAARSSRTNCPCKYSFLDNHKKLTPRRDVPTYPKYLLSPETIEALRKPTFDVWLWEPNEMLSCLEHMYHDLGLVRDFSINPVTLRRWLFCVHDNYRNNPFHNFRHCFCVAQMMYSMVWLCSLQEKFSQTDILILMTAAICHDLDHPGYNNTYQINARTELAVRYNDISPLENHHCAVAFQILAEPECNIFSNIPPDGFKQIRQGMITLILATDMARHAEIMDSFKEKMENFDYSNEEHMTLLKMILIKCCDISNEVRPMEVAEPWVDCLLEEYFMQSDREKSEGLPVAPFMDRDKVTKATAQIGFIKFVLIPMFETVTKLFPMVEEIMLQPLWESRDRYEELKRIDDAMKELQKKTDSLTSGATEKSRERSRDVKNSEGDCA

In the case of `Cc1ccc(CN2C[C@@H](C)[C@H](c3nc4c(cnn4C4CCOCC4)c(=O)[nH]3)C2)cn1` [Example 79, 6-{(3S,4S)-4-methyl-1-[(6-methylpyridin-3-yl)methyl]pyrrolidin-3-yl}-1-(tetrahydro-2H-pyran-4-yl)-1,5-dihydro-4H-pyrazolo[3,4-d]pyrimidin-4-one], the pIC50 was 8.43.

Same assay, conditions: human recombinant PDE9 from SF-9 cells; 50 nM [3H]cGMP; room temperature, 30 min; Examples 3-114; read-out: G5678A (U): IC50

`CC[C@@H]1CN(Cc2ccccc2)C[C@H]1c1nc2c(cnn2C(C)C)c(=O)[nH]1` [Example 40, 6-[(3S,4S)-1-benzyl-4-ethylpyrrolidin-3-yl]-1-isopropyl-1,5-dihydro-4H-pyrazolo[3,4-d]pyrimidin-4-one] and `CC(C)[C@@H]1CN(Cc2ccccc2)C[C@H]1c1nc2c(cnn2C2CCCC2)c(=O)[nH]1` (racemic) [Example 21, 6-[(3,4-trans)-1-benzyl-4-isopropylpyrrolidin-3-yl]-1-cyclopentyl-1,5-dihydro-4H-pyrazolo[3,4-d]pyrimidin-4-one] are within 0.2 log units of each other in pIC50: 7.35 for the first, 7.46 for the second.

Compared with `O=c1[nH]c([C@@H]2CN(Cc3ccc4nccnc4c3)C[C@H]2C2CC2)nc2c1cnn2C1CCCC1` (racemic) [Example 56, 1-cyclopentyl-6-[(3,4-trans)-4-cyclopropyl-1-(quinoxalin-6-ylmethyl)pyrrolidin-3-yl]-1,5-dihydro-4H-pyrazolo[3,4-d]pyrimidin-4-one], `C[C@@H]1CN(Cc2ccnc(N(C)C)n2)C[C@H]1c1nc2c(cnn2C2CCCC2)c(=O)[nH]1` [Example 54, 1-cyclopentyl-6-[(3S,4S)-1-{[2-(dimethylamino)pyrimidin-4-yl]methyl}-4-methylpyrrolidin-3-yl]-1,5-dihydro-4H-pyrazolo[3,4-d]pyrimidin-4-one] is 0.49 log units lower in pIC50: 8.32 for the first, 7.83 for the second. The first is the more potent here.

Same assay, conditions: human recombinant PDE9 from SF-9 cells; 50 nM [3H]cGMP; room temperature, 30 min; additional compounds Ex. 115-228; read-out: G5678A (U):IC50

Going from `C[C@@H]1CN(Cc2ccc(C#N)cc2)C[C@H]1c1nc2c(cnn2C2CCCC2)c(=O)[nH]1` (racemic) [Example 193, 4-{[(3,4-trans)-3-(1-cyclopentyl-4-oxo-4,5-dihydro-1H-pyrazolo[3,4-d]pyrimidin-6-yl)-4-methylpyrrolidin-1-yl]methyl}benzonitrile] to `C[C@@H]1CN(Cc2cccc(C#N)c2)C[C@H]1c1nc2c(cnn2C2CCCC2)c(=O)[nH]1` (racemic) [Example 155, 3-{[(3,4-trans)-3-(1-cyclopentyl-4-oxo-4,5-dihydro-1H-pyrazolo[3,4-d]pyrimidin-6-yl)-4-methylpyrrolidin-1-yl]methyl}benzonitrile], the pIC50 rises from 7.24 to 7.55 (0.31 log units). The second is the more potent here.

First: CCCc1ncc(CN2C[C@@H](C)[C@H](c3nc4c(cnn4C4CCCC4)c(=O)[nH]3)C2)cn1 (racemic) [Example 222, 1-cyclopentyl-6-{(3,4-trans)-4-methyl-1-[(2-propylpyrimidin-5-yl)methyl]pyrrolidin-3-yl}-1,5-dihydro-4H-pyrazolo[3,4-d]pyrimidin-4-one]
Second: Cc1c(F)cccc1CN1C[C@@H](C)[C@H](c2nc3c(cnn3C3CCCC3)c(=O)[nH]2)C1 (racemic) [Example 166, 1-cyclopentyl-6-[(3,4-trans)-1-(3-fluoro-2-methylbenzyl)-4-methylpyrrolidin-3-yl]-1,5-dihydro-4H-pyrazolo[3,4-d]pyrimidin-4-one]
The pIC50 of the first is 1.05 log units higher: 8.22 for the first, 7.17 for the second. The first is the more potent here.

Compared with `COc1ccc(C)cc1CN1C[C@@H](C)[C@H](c2nc3c(cnn3C3CCCC3)c(=O)[nH]2)C1` (racemic) [Example 217, 1-cyclopentyl-6-[(3,4-trans)-1-(2-methoxy-5-methylbenzyl)-4-methylpyrrolidin-3-yl]-1,5-dihydro-4H-pyrazolo[3,4-d]pyrimidin-4-one], `Cc1ccc(CN2C[C@@H](C)[C@H](c3nc4c(cnn4C4CCCC4)c(=O)[nH]3)C2)c(C)c1` (racemic) [Example 151, 1-cyclopentyl-6-[(3,4-trans)-1-(2,4-dimethylbenzyl)-4-methylpyrrolidin-3-yl]-1,5-dihydro-4H-pyrazolo[3,4-d]pyrimidin-4-one] is 0.67 log units lower in pIC50: 7.60 for the first, 6.93 for the second. The first is the more potent here.

For `CC(C)Oc1ccc(CN2C[C@@H](C)[C@H](c3nc4c(cnn4C4CCCC4)c(=O)[nH]3)C2)cc1` (racemic) [Example 188, 1-cyclopentyl-6-[(3,4-trans)-1-(4-isopropoxybenzyl)-4-methylpyrrolidin-3-yl]-1,5-dihydro-4H-pyrazolo[3,4-d]pyrimidin-4-one], the pIC50 was 7.14.
